Data reported in patent publication US20260042762A1 (Kymera Therapeutics, Inc., priority 2018, published 2026).

Molecular target: T1, MerTK (Homo sapiens, UniProt Q12866)
T1 construct: endogenous in cells; host or cells: Jurkat cells
T1 sequence (Q12866 21-999): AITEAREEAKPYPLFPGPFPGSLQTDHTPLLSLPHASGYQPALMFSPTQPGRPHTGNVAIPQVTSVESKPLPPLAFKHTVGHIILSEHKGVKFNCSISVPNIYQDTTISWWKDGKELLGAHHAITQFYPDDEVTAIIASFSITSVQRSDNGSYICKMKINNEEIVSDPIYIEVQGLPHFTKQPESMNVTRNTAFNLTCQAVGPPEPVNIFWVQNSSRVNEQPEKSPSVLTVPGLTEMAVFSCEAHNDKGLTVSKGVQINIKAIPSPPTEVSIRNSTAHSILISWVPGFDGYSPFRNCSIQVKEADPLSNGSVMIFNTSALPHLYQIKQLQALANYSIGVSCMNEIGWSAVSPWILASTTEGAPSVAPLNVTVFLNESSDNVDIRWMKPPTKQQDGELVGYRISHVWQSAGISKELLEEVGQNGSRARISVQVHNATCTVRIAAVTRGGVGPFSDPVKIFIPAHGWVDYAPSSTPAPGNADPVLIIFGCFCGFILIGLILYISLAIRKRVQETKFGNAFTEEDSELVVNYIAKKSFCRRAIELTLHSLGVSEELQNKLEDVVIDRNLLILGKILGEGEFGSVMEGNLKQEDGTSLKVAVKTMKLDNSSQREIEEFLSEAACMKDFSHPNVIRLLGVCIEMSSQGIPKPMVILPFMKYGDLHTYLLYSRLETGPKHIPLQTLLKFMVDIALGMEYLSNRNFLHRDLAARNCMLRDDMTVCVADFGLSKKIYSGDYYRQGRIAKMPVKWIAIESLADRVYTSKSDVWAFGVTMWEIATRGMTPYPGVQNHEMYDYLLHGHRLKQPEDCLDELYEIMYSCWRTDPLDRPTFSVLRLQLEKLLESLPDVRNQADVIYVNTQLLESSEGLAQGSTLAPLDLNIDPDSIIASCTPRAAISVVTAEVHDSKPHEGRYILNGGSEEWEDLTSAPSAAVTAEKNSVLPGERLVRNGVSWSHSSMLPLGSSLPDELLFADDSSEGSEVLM
Experiment: MerTk degradation in Jurkat cells (Western blot)
Type: cell-based
Details: 0.001-1 μM, 4 hour-incubation at 37° C.; for Dmax: Jurkat, 4 h, read-out: Jurkat Max % MerTK Degradation
Outline: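 MerTK degradation was read by near-infrared Western blot, normalized to actin, in BCA-quantified lysates of Jurkat cells exposed to 0.001-1 μM compound for 4 h at 37 °C.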

Structure (SMILES)	Dmax [%]	Jurkat Max % MerTK Degradation
C[C@H](CC(F)(F)F)Nc1ncc2c(-c3ccc(CN4CCN(CCCOC5CN(Cc6ccc7c(c6)n(C)c(=O)n7C6CCC(=O)NC6=O)C5)CC4)cc3)cn([C@H]3CC[C@H](O)CC3)c2n1 (stereo partly drawn) [I-200, trans-3-(3-methyl-2-oxo-5-[[3-(3-[4-[(4-[7-[4-hydroxycyclohexyl]-2-[[(2R)-4,4,4-trifluorobutan-2-yl]amino]pyrrolo[2,3-d]pyrimidin-5-yl]phenyl)methyl]piperazin-1-yl]propoxy)azetidin-1-y1]methyl]-1,3-benzodiazol-1-y1)piperidine-2,6-dione; tris(formic acid)]	> 50	–
C[C@@H](CC(F)(F)F)Nc1ncc2c(-c3ccc(CN4CCN(CCCOC5CN(Cc6ccc7c(c6)n(C)c(=O)n7C6CCC(=O)NC6=O)C5)CC4)cc3)cn([C@H]3CC[C@H](O)CC3)c2n1 (stereo partly drawn) [I-201, 3-(3-methyl-2-oxo-5-[[3-(3-[4-[(4-[7-[trans-4-hydroxycyclohexy1]-2-[[(2S)-4,4,4-trifluorobutan-2-yl]amino]pyrrolo[2,3-d]pyrimidin-5-y1]phenyl)methyl]piperazin-1-yl]propoxy)azetidin-1-yl]methy1]-1,3-benzodiazol-1-yl)piperidine-2,6-dione; tris(formic acid)]	20 to 50	–
O=C(c1ccc(CNCc2ccc(-c3ccc4c(cnn4CC4CC4)c3)cc2)cc1)N1CCC(C2CCN(Cc3ccc(-c4cn([C@H]5CC[C@H](O)CC5)c5nc(NCCC(F)(F)F)ncc45)cc3)CC2)CC1 [I-202, (4-(((4-(1-(cyclopropylmethyl)-1H-indazol-5-yl)benzyl)amino)methyl)phenyl)(1′-(4-(7-(trans-4-hydroxycyclohexyl)-2-((3,3,3-trifluoropropyl)amino)-7H-pyrrolo[2,3-d]pyrimidin-5-yl)benzyl)-[4,4′-bipiperidin]-1-yl)methanone; formic acid]	< 20	–
CN1CCN(Cc2ccc(-c3ccc(CO[C@H]4CCC[C@@H]4NC(=O)c4cc(-c5cnn(CCOCCOCCOCCCc6ccc7c(c6)n(C)c(=O)n7C6CCC(=O)NC6=O)c5)cnc4N)cc3)cc2)CC1 (stereo partly drawn) [I-203, 2-Amino-5-(1-[2-[2-(2-[3-[1-(2,6-dioxopiperidin-3-yl)-3-methyl-2-oxo-1,3-benzodiazol-5-yl]propoxy]ethoxy)ethoxy]ethyl]pyrazol-4-yl)-N-[(1S,2S)-2-([4-[(4-methylpiperazin-1-yl)methyl]-[1,1-biphenyl]-4-yl]methoxy)cyclopentyl]pyridine-3-carboxamide]	20 to 50	–
CN1CCN(Cc2ccc(-c3ccc(CO[C@H]4CCC[C@@H]4NC(=O)c4cc(-c5cnn(CCOCCOCCOCCCc6cccc7c6n(C)c(=O)n7C6CCC(=O)NC6=O)c5)cnc4N)cc3)cc2)CC1 (stereo partly drawn) [I-204, 2-Amino-5-(1-[2-[2-(2-[3-[1-(2,6-dioxopiperidin-3-yl)-3-methyl-2-oxo-1,3-benzodiazol-4-yl]propoxy]ethoxy)ethoxy]ethyl]pyrazol-4-yl)-N-[(1S,2S)-2-([4-[(4-methylpiperazin-1-yl)methyl]-[1,1-biphenyl]-4-yl]methoxy)cyclopentyl]pyridine-3-carboxamide]	20 to 50	–
CCC[C@H](C)Nc1ncc2c(n1)n([C@H]1CC[C@H](O)CC1)cc2[C@H]1CC[C@@H](CN2CCN(C3CC(OCCc4ccc5c(c4)n(C)c(=O)n5C4CCC(=O)NC4=O)C3)CC2)CC1 (stereo partly drawn) [I-206, 3-(3-methyl-2-oxo-5-[2-[3-(4-[cis-4-[2-[(2S)-pentan-2-ylamino]-7-[trans-4-hydroxycyclohexyl]pyrrolo[2,3-d]pyrimidin-5-yl]cyclohexyl]methyl]piperazin-1-yl)cyclobutoxylethyl]-1,3-benzodiazol-1-y1)piperidine-2,6-dione]	> 50	–
CCC[C@H](C)Nc1ncc2c(n1)n([C@H]1CC[C@H](O)CC1)cc2[C@H]1CC[C@@H](CN2CCN(CCCOC3CCN(Cc4ccc5c(c4)n(C)c(=O)n5C4CCC(=O)NC4=O)CC3)CC2)CC1 (stereo partly drawn) [I-207]	> 50	–
CCC[C@H](C)Nc1ncc2c(n1)n([C@H]1CC[C@H](O)CC1)cc2[C@H]1CC[C@H](CN2CCN(CCCOC3CCN(Cc4ccc5c(c4)n(C)c(=O)n5C4CCC(=O)NC4=O)CC3)CC2)CC1 (stereo partly drawn) [I-208, 3-[3-methyl-2-oxo-5-([4-[3-(4-[[trans-4-[2-[(2S)-pentan-2-ylamino]-7-[trans-4-hydroxycyclohexyl]pyrrolo[2,3-d]pyrimidin-5-yl]cyclohexyl]methyl]piperazin-1-yl)propoxy]piperidin-1-yl]methyl)-1,3-benzodiazol-1-yl]piperidine-2,6-dione]	> 50	–
C[C@H](CC(F)(F)F)Nc1ncc2c(-c3ccc(CN4CCN(CCCO[C@H]5CCN(Cc6ccc7c(c6)n(C)c(=O)n7C6CCC(=O)NC6=O)C5)CC4)cc3)cn([C@H]3CC[C@H](O)CC3)c2n1 (stereo partly drawn) [I-210, 3-(3-methyl-2-oxo-5-[[(3R)-3-(3-[4-[(4-[7-[trans-4-hydroxycyclohexy1]-2-[[(2S)-4,4,4-trifluorobutan-2-yl]amino]pyrrolo[2,3-d]pyrimidin-5-yl]phenyl)methyl]piperazin-1-yl]propoxy)pyrrolidin-1-yl]methyl]-1,3-benzodiazol-1-yl)piperidine-2,6-dione]	–	C (maximum MerTK degradation less than or equal to 20% (≤20%))
CCC[C@H](C)Nc1ncc2c(n1)n([C@H]1CC[C@H](O)CC1)cc2[C@H]1CC[C@H](CN2CCN(CCCO[C@H]3CCN(Cc4ccc5c(c4)n(C)c(=O)n5C4CCC(=O)NC4=O)C3)CC2)CC1 (stereo partly drawn) [I-211, 3-(3-methyl-2-oxo-5-[[(3S)-3-[3-(4-[[trans-4-[2-[(2S)-pentan-2-ylamino]-7-[trans-4-hydroxycyclohexyl]pyrrolo[2,3-d]pyrimidin-5-yl]cyclohexyl]methyl]piperazin-1-yl)propoxy]pyrrolidin-1-yl]methyl]-1,3-benzodiazol-1-yl)piperidine-2,6-dione]	> 50	–

The next lines start with results.

Dmax [%]	Structure (SMILES)	Jurkat Max % MerTK Degradation
> 50	Cc1ncsc1-c1ccc(CNC(=O)[C@@H]2C[C@@H](O)CN2C(=O)[C@@H](NC(=O)C2(F)CC2)C(C)(C)C)c(OCCCCCCN2CCN(Cc3ccc(-c4cn([C@H]5CC[C@H](O)CC5)c5nc(NCCC(F)(F)F)ncc45)cc3)CC2)c1 [I-212, (2S,4R)-1-[(2S)-2-[(1-fluorocyclopropyl)formamido]-3,3-dimethylbutanoyl]-4-hydroxy-N-[[4-(4-methyl-1,3-thiazol-5-yl)-2-[(6-[4-[(4-[7-[trans-4-hydroxycyclohexyl]-2-[(3,3,3-trifluoropropyl)amino]pyrrolo[2,3-d]pyrimidin-5-yl]phenyl)methyl]piperazin-1-yl]hexyl)oxy]phenyl]methyl]pyrrolidine-2-carboxamide]	–
> 50	Cc1ncsc1-c1ccc(CNC(=O)[C@@H]2C[C@@H](O)CN2C(=O)[C@@H](NC(=O)C2(F)CC2)C(C)(C)C)c(OCCCCCCCN2CCN(Cc3ccc(-c4cn([C@H]5CC[C@H](O)CC5)c5nc(NCCC(F)(F)F)ncc45)cc3)CC2)c1 [I-213, (2S,4R)-1-[(2S)-2-[(1-fluorocyclopropyl)formamido]-3,3-dimethylbutanoyl]-4-hydroxy-N-[[4-(4-methyl-1,3-thiazol-5-yl)-2-[(7-[4-[(4-[7-[trans-4-hydroxycyclohexyl]-2-[(3,3,3-trifluoropropyl)amino]pyrrolo[2,3-d]pyrimidin-5-yl]phenyl)methyl]piperazin-1-yl]heptyl)oxy]phenyl]methyl]pyrrolidine-2-carboxamide]	–
> 50	Cc1ncsc1-c1ccc(CNC(=O)[C@@H]2C[C@@H](O)CN2C(=O)[C@@H](NC(=O)C2(F)CC2)C(C)(C)C)c(OCCOCCOCCN2CCN(Cc3ccc(-c4cn([C@H]5CC[C@H](O)CC5)c5nc(NCCC(F)(F)F)ncc45)cc3)CC2)c1 [I-214, (2S,4R)-1-[(2S)-2-[(1-fluorocyclopropyl)formamido]-3,3-dimethylbutanoyl]-4-hydroxy-N-[[4-(4-methyl-1,3-thiazol-5-yl)-2-[2-[2-(2-[4-[(4-[7-[trans-4-hydroxycyclohexyl]-2-[(3,3,3-trifluoropropyl)amino]pyrrolo[2,3-d]pyrimidin-5-yl]phenyl)methyl]piperazin-1-yl]ethoxy)ethoxy]ethoxy]phenyl]methyl]pyrrolidine-2-carboxamide]	–
> 50	C[C@@H](Nc1ncc2c(-c3ccc(CN4CCN(CCCOCCCc5ccc6c(c5)n(C)c(=O)n6C5CCC(=O)NC5=O)CC4)cc3)cn([C@H]3CC[C@H](O)CC3)c2n1)C(F)F (stereo partly drawn) [I-215]	–
> 50	C[C@H](Nc1ncc2c(-c3ccc(CN4CCN(CCCOCCCc5ccc6c(c5)n(C)c(=O)n6C5CCC(=O)NC5=O)CC4)cc3)cn([C@H]3CC[C@H](O)CC3)c2n1)C(F)F (stereo partly drawn) [I-216]	–
